From the OPERA property sets (Mansouri et al. 2018) come the findings set out here.

For orientation: logP means a log measure of how a compound divides between an organic and an aqueous phase. Low values mean a more hydrophilic compound, high ones a more lipophilic compound.

Each structure is given as a SMILES string.

`COc1ccc2cc(C(C)C(=O)Oc3ccccc3)ccc2c1` (stereo unspecified) registered a lipophilicity (logP) of 5.17.

`COC1CC(OC2CCC3(C)C2CCC2C3CCC3(C)C(C4=CC(=O)OC4)CCC23O)OC(C)C1O` (stereo unspecified) registered a logP of 2.37.

In the case of `CC(=O)N1c2ccc(C)cc2C2CN(C)CCC21` (stereo unspecified), the logP stood at 1.25.

For `Cc1ncc(OP(=O)(O)O)c(CO)c1O`, the logP is -0.64.

Molecule `CCC1(CC)C(=O)NCC(C)C1=O` (stereo unspecified) came in with a logP of 0.78.

`OC(Cn1ccnc1)(c1ccc(F)cc1)c1ccc(-c2ccncc2)cc1` (stereo unspecified) had a logP of 2.47.

On to `CN(C)C(=O)NCCCn1nc(-c2ccccc2)ccc1=O`, for which the logP stood at 1.61.

Take `CCCCC(=O)OC1C(CO)OC(n2cnc3c(OC)ncnc32)C1OC(=O)CCCC` (stereo unspecified): the logP is 3.83.

For `CN(Cc1ccccc1)C(=O)C(Cc1ccccc1)NC(=O)C(Cc1cn(C(=O)OCc2ccccc2)c2ccccc12)NC(=O)CC1NC(=O)C2C3CCC(CC3)N2C1=O` (stereo unspecified), the log partition coefficient (logP) worked out at 5.66.

The molecule `Clc1cc(Cl)cc(-c2cc(Cl)cc(Cl)c2)c1` returned a logP of 6.6.

With `CCCCC1C(=O)NC(=O)N(C)C1=O` (stereo unspecified), the logP stood at 1.1.

Molecule `Cc1cccc(C)c1C(=O)CCN1CCCCC1` yielded a logP of 3.53.

`COC(=O)C1=C(C)NC(C)=C(C(=O)OC(C)C)C1c1cccc2nonc12` (stereo unspecified): the logP came out at 4.28.

Turning to `COC(=O)C(C#N)=Cc1ccc(SC)o1`, the logP was determined as 2.61.

As to `Nc1ccc(C(=O)O)cc1I`, the logP was determined as 2.36.

`CCCCSC(=Nc1cccnc1)SCc1ccc(C(C)(C)C)cc1` showed a logP of 7.

For `CCCCC(=O)OC[C@H]1O[C@@H](n2cc(I)c(=O)[nH]c2=O)C[C@@H]1O`, the logP was found to be 1.44.

The molecule `CC(=O)Nc1ccc(Cl)cc1` came in with a log partition coefficient (logP) of 2.09.

In turn, `Cc1ncc([N+](=O)[O-])n1CC(O)Cn1c([N+](=O)[O-])cnc1C` yielded a logP of 0.31.

The molecule `O=c1ccnc2n1CCCC2` gave a logP of -0.14.

The molecule `CCCOC(=O)n1c(NC(=O)OC)nc2cc(C(=O)c3ccccc3)ccc21` displayed a logP of 3.43.

In turn, `CNC(=S)NCCCCC(NC(=O)C(CC(=O)N1CCOCC1)Cc1cccc2ccccc12)C(=O)NC(CC1CCCCC1)C(O)CC(=O)NCCN1CCOCC1` (stereo unspecified) gave a logP of 1.68.

For the molecule `Nc1nc(=O)c2[nH]c(N)c(Cc3cccs3)c2[nH]1`, the logP worked out at 1.01.

With `Cn1c([N+](=O)[O-])cnc1COC(N)=O`, the logP was -0.38.

`COc1cc(C(N)=O)ccc1-c1nc2ccncc2[nH]1` had a logP of 1.18.

Molecule `CCN(CC)CCCN1c2ccccc2Sc2ccc(Cl)cc21` returned a logP of 6.46.

The molecule `CC1c2nc3ccccc3c(=O)n2CN1c1ccccc1` (stereo unspecified) came in with a logP of 1.79.

Consider `CC(=O)N1CCCC1=O`, for which the lipophilicity (logP) was -0.05.

In turn, `CC(C)N(CCC(CCN1CCCCC1)(C(N)=O)c1ccccc1Cl)C(C)C` (stereo unspecified) yielded a logP of 4.78.

`Nc1cc([N+](=O)[O-])ccc1O`: the log partition coefficient (logP) was determined as 1.26.

`COc1ccc2c(c1)[nH]c1c(C)nccc12`: the logP came to 3.56.

The molecule `CN(C)C=C1OC(=O)C(C#N)=C1c1ccccc1` gave a logP of 1.07.

In turn, `CN[C@@H](C)[C@H](O)c1ccccc1.Cl` displayed a logP of -2.45.

Regarding `COC(=O)c1c(C)[nH]c(-c2cc(Cl)ccn2)c1C(=O)OC`, the logP came out at 2.63.

`Nc1ccc(C(=O)O)cc1N` yielded a logP of 0.13.

With `Cc1ccc2c(c1)C1CN(C)CCC1N2C(=O)C=Cc1ccccc1` (stereo unspecified), the logP was found to be 3.49.

In the case of `CC1c2nc3ccccc3c(=O)n2CN1CCO` (stereo unspecified), the logP is 0.46.

`CC1(C)S[C@@H]2[C@H](NC(=O)[C@H](N)c3ccccc3)C(=O)N2[C@H]1C(=O)O` showed a logP of 1.35.

On to `Cc1onc(-c2ccccc2Cl)c1C(=O)NC1C(=O)N2C1S(=O)C(C)(C)C2C(=O)O` (stereo unspecified), for which the logP worked out at 2.

With `COC(=O)c1c(C)[nH]c(-c2cccc(Cl)n2)c1C(=O)OC`, the logP is 2.65.

In turn, `Cc1ccccc1C(=O)CCN1CCCCC1` showed a logP of 3.54.

`Oc1cc(Cl)c(Cl)c(Cl)c1O` yielded a logP of 3.71.

Turning to `CCNC(=O)CCn1ccc(=O)c(O)c1C`, the logP was -0.82.

`N=C(N)N1CCc2ccccc2C1` came in with a logP of 0.75.

With `Cc1cccc(Nc2c([N+](=O)[O-])c(C)nn2-c2ccccc2)c1`, the logP was 3.25.

Take `COc1cccc(C(=O)NC2CCN(Cc3ccc(F)cc3)CC2)c1OC`: the lipophilicity (logP) was 2.87.

The molecule `OC[C@@H](O)[C@H]1O[C@@H]2O[C@H](C(Cl)(Cl)Cl)O[C@@H]2[C@H]1O` returned a logP of 1.02.

The molecule `Nc1ccn(C2OC(CO)CC2F)c(=O)n1` (stereo unspecified) gave a logP of -1.18.

Regarding `CN1CC(=O)N(c2ccccc2)C1=O`, the log partition coefficient (logP) is 0.14.

Molecule `CCCC1=Nc2cc(Cl)c(S(N)(=O)=O)cc2S(=O)(=O)N1` displayed a logP of 1.21.

Turning to `O=C1COC(=O)N1c1ccccc1`, the logP turned out to be 0.93.

`Cc1c(C(C)C)c(=O)n(-c2ccccc2)n1C` returned a logP of 1.94.

Consider `Cc1c(O)c(=O)ccn1CCC(=O)NC(C)C`, for which the logP is -0.47.

For `CC(C)CC1NC(=O)NC1=O` (stereo unspecified), the logP stood at 0.35.

As to `CNC(=O)CCn1ccc(=O)c(O)c1C`, the logP was -1.1.

`CCOC(=O)c1cnc2n(c1=O)C(C)CCC2` (stereo unspecified) registered a logP of 0.62.

In turn, `CCC(CC)(C(=O)NC(N)=O)C(=O)OC(C)C` gave a lipophilicity (logP) of 1.99.

`O=c1c2ccccc2nc2n1CCCCC2` returned a logP of 2.

In the case of `CC(=O)Nc1nc(NC(O)CC(O)CO)c(Cl)nc1[N+](=O)[O-]` (stereo unspecified), the logP is -0.66.

Take `CCn1cc(C(=O)OCOC(C)=O)c(=O)c2ccc(C)nc21`: the logP was 1.21.

In the case of `CC(C)(C)C(COc1ccccc1)OC(=O)n1ccnc1` (stereo unspecified), the lipophilicity (logP) turned out to be 3.58.

`CC1=C(C)C(=O)C(Cc2cccnc2)=C(C)C1=O` displayed a logP of 2.55.

`CCCCCCCOC(=O)c1cc(=O)[nH]c(=O)[nH]1` showed a logP of 2.15.

On to `O=C1CN=C(c2ccccn2)c2cc(Br)ccc2N1`, for which the logP turned out to be 2.05.

In turn, `Cn1cnc([N+](=O)[O-])c1Cl` yielded a logP of 1.06.

`COC(=O)n1cc(CC(NC(=O)CC2NC(=O)C3C4CCC(CC4)N3C2=O)C(=O)NC(Cc2ccccc2)C(=O)N(C)Cc2ccccc2)c2ccccc21` (stereo unspecified) came in with a logP of 4.05.

Turning to `CCCCCO`, the logP turned out to be 1.51.

For the molecule `CCC(=O)n1c(=O)[nH]cc(F)c1=O`, the logP turned out to be 0.19.

For the molecule `O=c1[nH]c(=O)n(Cc2ccc(Cl)cc2)cc1F`, the logP is 1.64.

Consider `COC1N(C2CC(F)C(CO)O2)C(=O)NC(=O)C1(C)Cl` (stereo unspecified), for which the logP was 0.18.

`CCCOc1ccc(OCC(OC(=O)n2ccnc2)C(C)(C)C)cc1` (stereo unspecified) displayed a log partition coefficient (logP) of 4.1.

Molecule `NC(=O)COc1ccc(OCCNCC(O)COc2ccccc2)cc1` (stereo unspecified) displayed a logP of 1.1.

In turn, `CCCC(=NOCC)C1C(=O)CC(c2ccccc2)(c2ccccc2)OC1=O` (stereo unspecified) yielded a logP of 4.75.

On to `CCc1c(C)nc2n(c1=O)C(C)CCC2` (stereo unspecified), for which the logP is 1.43.

For the molecule `O=C(O)Cc1cc(O)ccc1O`, the logP stood at 0.86.

`CCc1ccc(OCC(OC(=O)n2ccnc2)C(C)(C)C)cc1` (stereo unspecified) gave a lipophilicity (logP) of 4.1.

For `CCc1c(O)c(=O)ccn1C(C)C`, the logP is 0.73.

Consider `CC1CCC2C(C)C(O)OC3OC4(C)CCC1C32OO4` (stereo unspecified), for which the logP was 2.19.

In the case of `Nc1cc(Cl)c(Cl)c(Cl)c1Cl`, the logP turned out to be 4.27.

`Nc1ccc(C(=O)O)c(O)c1` had a logP of 0.89.

Take `CC1CC2CC=CCC2(N)c2ccccc21` (stereo unspecified): the logP amounted to 3.4.

In the case of `ClC(Cl)Br`, the lipophilicity (logP) is 2.

Regarding `NNC(=O)c1ccc2c(c1)OCO2`, the logP amounted to 1.16.

`C=C1C(=O)OC2C1CCC(C)C1(O)CCC(=O)C21C` (stereo unspecified) gave a logP of 0.83.

Take `COc1ccc(C(=O)OCC2OC(n3cc(I)c(=O)[nH]c3=O)CC2O)cc1` (stereo unspecified): the logP worked out at 1.38.

With `S=C=Nc1cccc(Cl)c1`, the lipophilicity (logP) stood at 3.36.

In the case of `N[C@H]1CCc2ccccc2[C@H]1O`, the logP was determined as 0.86.

As for `O=[N+]([O-])c1cnc(N2CCNC2=S)s1`, the logP amounted to 1.7.

For `COc1cc(C(N)=O)ccc1-c1cn2cccnc2n1`, the logP was 0.7.

In turn, `CN1C(CSCC(F)(F)F)Nc2cc(Cl)c(S(N)(=O)=O)cc2S1(=O)=O` (stereo unspecified) returned a logP of 1.9.

With `CN(C)C(=O)NCCCCn1nc(-c2ccccc2)ccc1=O`, the logP was determined as 1.58.

The molecule `NCCCCN` registered a logP of -0.7.

On to `OC[C@H]1NC[C@H](O)[C@@H](O)[C@@H]1O`, for which the logP is -1.8.

Take `CCCC(=O)OCC1OC(n2cc(F)c(=O)[nH]c2=O)CC1OC(=O)CCC` (stereo unspecified): the logP worked out at 1.9.

Turning to `N#Cc1ccccn1`, the lipophilicity (logP) amounted to 0.45.

In turn, `Cc1[nH]cnc1CSCCNc1[nH]ccc1[N+](=O)[O-]` displayed a logP of 1.04.

In the case of `CC1CCC=C2N(C)C=C(C(N)=O)C(=O)N21` (stereo unspecified), the logP amounted to 0.12.

`O=c1c2c(nc3n1CCC3)CCCC2` returned a logP of 0.83.

`CCC(=O)O[C@]1(C(=O)CCl)[C@@H](C)C[C@H]2[C@@H]3CCC4=CC(=O)C=C[C@]4(C)[C@@]3(F)[C@@H](O)C[C@@]21C` registered a logP of 3.5.

With `CC1OC(=O)C(C)C(O)C1C` (stereo unspecified), the logP was 0.36.

The molecule `COC(=O)NC1=NCC(c2ccccc2Br)N1` (stereo unspecified) gave a logP of 1.85.

In turn, `NC(=O)Nc1ccc(Cl)c(Cl)c1` had a logP of 2.65.

The molecule `CC1(C)S[C@@H]2[C@H](NC(=O)C3(N)CCCCC3)C(=O)N2[C@H]1C(=O)O` displayed a logP of 1.31.

As for `Nc1nc(=O)n(C2OC(CO)CC2F)cc1F` (stereo unspecified), the lipophilicity (logP) is -0.92.

`CC1CCCC2C1N2CC(O)Cn1ccnc1` (stereo unspecified) returned a logP of 1.55.

Regarding `CCCCCCCCN(C)N=Nc1[nH]cnc1C(N)=O`, the logP came out at 3.22.

With `OC1CCN(Cc2cccc(COc3ccccc3)c2)CC1`, the logP is 2.77.

`O=C(O)CCCC(=O)c1ccccc1` registered a log partition coefficient (logP) of 1.49.

`CCNP(=O)(OCC)ON=C(C#N)c1ccc([N+](=O)[O-])cc1` (stereo unspecified) had a logP of 1.76.

Molecule `Cc1cc2n(c1C(=O)c1ccccc1)CCC2C(=O)O` (stereo unspecified) registered a logP of 2.85.

As to `Cc1nn(-c2ccccc2)c(Nc2ccccc2)c1[N+](=O)[O-]`, the logP came to 2.98.

For `CNC(=C[N+](=O)[O-])NCCSCc1nc[nH]c1C`, the logP was -0.4.

As for `CCC(C(=O)OCCc1ccccc1)C(CO)Cc1cncn1C` (stereo unspecified), the logP turned out to be 2.31.

Take `CCc1nc(S(=O)(=O)Nc2c(F)cccc2F)nn1-c1ccccc1`: the logP worked out at 3.7.

As for `CCCN(C)CC(F)(F)F`, the logP turned out to be 2.18.

Take `NCC(O)c1ccc(O)cc1` (stereo unspecified): the logP was -0.9.
